Results on nine molecules are retold here after patent US10836789B2, “Inhibitors of glucocorticoid receptor” (ORIC Pharmaceuticals, Inc., priority 2016, dated 2020).

A word on the IC50: it is the point on the concentration scale where inhibition reaches its midpoint. High values mean weaker potency, low ones greater potency.

The structures appear in SMILES notation.

In the experiment the target is T1, GR (Homo sapiens, UniProt P04150).
T1 construct: expressed in transfected cells; host or cells: CHO cells carrying GR and an MMTV-luciferase reporter
T1 sequence (P04150 1-777): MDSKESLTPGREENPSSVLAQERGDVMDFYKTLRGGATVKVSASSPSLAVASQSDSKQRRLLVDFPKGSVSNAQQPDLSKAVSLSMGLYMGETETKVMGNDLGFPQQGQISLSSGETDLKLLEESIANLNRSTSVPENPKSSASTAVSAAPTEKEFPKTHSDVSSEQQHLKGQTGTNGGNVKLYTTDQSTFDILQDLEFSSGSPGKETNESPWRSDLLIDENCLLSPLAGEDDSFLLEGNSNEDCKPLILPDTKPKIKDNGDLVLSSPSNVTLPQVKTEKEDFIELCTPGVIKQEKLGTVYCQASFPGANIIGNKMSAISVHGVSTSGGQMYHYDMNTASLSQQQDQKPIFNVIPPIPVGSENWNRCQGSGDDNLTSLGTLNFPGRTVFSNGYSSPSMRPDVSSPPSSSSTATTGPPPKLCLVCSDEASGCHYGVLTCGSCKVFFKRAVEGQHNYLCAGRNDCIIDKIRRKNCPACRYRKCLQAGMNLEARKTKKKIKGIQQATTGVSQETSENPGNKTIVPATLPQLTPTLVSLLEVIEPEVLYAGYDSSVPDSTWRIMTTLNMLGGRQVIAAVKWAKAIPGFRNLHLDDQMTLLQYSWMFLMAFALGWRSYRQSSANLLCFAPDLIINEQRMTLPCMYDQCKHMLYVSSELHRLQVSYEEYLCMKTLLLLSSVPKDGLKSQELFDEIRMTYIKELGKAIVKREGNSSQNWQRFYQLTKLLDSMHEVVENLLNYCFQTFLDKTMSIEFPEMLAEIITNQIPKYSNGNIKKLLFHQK
As to the kind of experiment: GR luciferase antagonist assay (CHO/GR/MMTV Luciferase cells). Particulars: 10 nM Dexamethasone final, 16-18 h. The format is cell-based. Here is the method: Example A: […] GR Luciferase Assay Cell Line: CHO/GR/MMTV Luciferase Culture Media: DMEM (with phenol red)+10% FBS Assay Media: DMEM (without phenol red)+10% CSS A 1×10 cm plate of cells was split into 2×15 cm plates in Assay Media (CSS). After 4 days, the cells in the Assay Media were collected and counted. Antagonist Assay: 1.5×10^4 cells per well were plated in a 384-well white walled TC plate in 20 ul of Assay Media containing 12.5 nM Dexamethasone (final concentration=10 nM). The plates were covered with film to avoid evaporation and placed in a TC incubator. Media/drug dilutions were prepared in Assay Media in 96-well sterile plates. 100 ul of Assay Media was distributed in aliquots into 96-well plates with an 8-Channel pipette (20-200 ul). 0.5 ul of 1000× concentration of compounds were added to the plates with 8-Channel pipette (0.5-10 ul). The plates were shaken for 15 seconds to mix. The film was removed from the 384-well plates with assay cells. 5 ul of media/drug dilutions were added to appropriate wells. The plates were covered with film to avoid evaporation and placed in a TC incubator overnight. After 16-18 h in the incubator, the plates were removed and sat at room temperature for 10 minutes to equilibrate. The Reagent Dispenser was setup to distribute 25 ul aliquots of OneGlo Luciferase Reagent (at room temperature) to each well of the 384-well plate using standard cassette. After OneGlo was added to the plates, the plates were shaken briefly, then incubated in the dark at room temperature for about 3 minutes. The plates were read using a Tecan or Promega luminometer. The ability of the compounds disclosed herein to inhibit GR activity was quantified and the respective IC50 value was determined. Table 3 provides the cellular IC50 values of various substituted steroidal compounds disclosed herein.
For `CC(C)(C)C#C[C@]1(O)CC[C@H]2[C@@H]3CCC4=CC(=O)CC[C@@H]4[C@H]3[C@@H](c3ccc(N)cc3)C[C@@]21C` [Compound 13, (8R,9S,10R,11S,13S,14S,17S)-11-(4-Aminophenyl)-17-(3,3-dimethylbut-1-yn-1-yl)-17-hydroxy-13-methyl-1,2,6,7,8,9,10,11,12,13,14,15,16,17-tetradecahydro-3H-cyclopenta[a]phenanthren-3-one], the 50% inhibitory concentration (IC50) is not above 100 nM. `CC(C)N(C)c1ccc([C@H]2C[C@@]3(C)[C@@H](CC[C@@]3(O)C#CC(C)(C)C)[C@@H]3CCC4=CC(=O)CC[C@@H]4[C@H]32)cc1F` [Compound 15, (8R,9S,10R,11S,13S,14S,17S)-17-(3,3-Dimethylbut-1-yn-1-yl)-11-(3-fluoro-4-(isopropyl(methyl)amino)phenyl)-17-hydroxy-13-methyl-1,2,6,7,8,9,10,11,12,13,14,15,16,17-tetradecahydro-3H-cyclopenta[a]phenanthren-3-one]: the IC50 was not above 100 nM.

With `CC#C[C@]1(O)CC[C@H]2[C@@H]3CCC4=CC(=O)CC[C@]4(C)[C@H]3[C@@H](c3ccc(N)cc3)C[C@@]21C` [Compound 26, (8S,9R,10R,11S,13S,14S,17S)-11-(4-Aminophenyl)-17-hydroxy-10,13-dimethyl-17-(prop-1-yn-1-yl)-1,2,6,7,8,9,10,11,12,13,14,15,16,17-tetradecahydro-3H-cyclopenta[a]phenanthren-3-one], the IC50 is more than 100 nM.

As for `CC#C[C@]1(O)CC[C@H]2[C@@H]3CCC4=CC(=O)CC[C@]4(C)[C@H]3[C@@H](c3ccc(-n4cccc4)cc3)C[C@@]21C` [Compound 31, (8S,9R,10R,11S,13S,14S,17S)-11-(4-(1H-Pyrrol-1-yl)phenyl)-17-hydroxy-10,13-dimethyl-17-(prop-1-yn-1-yl)-1,2,6,7,8,9,10,11,12,13,14,15,16,17-tetradecahydro-3H-cyclopenta[a]phenanthren-3-one], the concentration for half-maximal inhibition (IC50) is not above 100 nM. With `CC(C)N(C)c1ccc([C@H]2C[C@@]3(C)[C@@H](CC[C@@]3(O)C#CC(C)(C)C)[C@@H]3CCC4=CC(=O)CC[C@]4(C)[C@H]32)cc1` [Compound 16], the IC50 was more than 100 nM. The molecule `CC#C[C@]1(O)CC[C@H]2[C@@H]3CCC4=CC(=O)CC[C@]4(C)[C@H]3[C@@H](c3ccc(NC(C)C)cc3)C[C@@]21C` [Compound 30, (8S,9R,10R,11S,13S,14S,17S)-17-Hydroxy-11-(4-(isopropylamino)phenyl)-10,13-dimethyl-17-(prop-1-yn-1-yl)-1,2,6,7,8,9,10,11,12,13,14,15,16,17-tetradecahydro-3H-cyclopenta[a]phenanthren-3-one] gave an IC50 of more than 100 nM. As to `CCN(CC)c1ccc([C@H]2C[C@@]3(C)[C@@H](CC[C@@]3(O)C#CC(C)(C)C)[C@@H]3CCC4=CC(=O)CC[C@@H]4[C@H]32)cc1` [Compound 9, (8R,9S,10R,11S,13S,14S,17S)-11-(4-(Diethylamino)phenyl)-17-(3,3-dimethylbut-1-yn-1-yl)-17-hydroxy-13-methyl-1,2,6,7,8,9,10,11,12,13,14,15,16,17-tetradecahydro-3H-cyclopenta[a]phenanthren-3-one], the IC50 is not above 100 nM.

In turn, `CC(C)(C)C#C[C@]1(O)CC[C@H]2[C@@H]3CCC4=CC(=O)CC[C@@H]4[C@H]3[C@@H](c3ccc4c(c3)OCO4)C[C@@]21C` [Compound 5, (8R,9S,10R,11S,13S,14S,17S)-11-(Benzo[d][1,3]dioxol-5-yl)-17-(3,3-dimethylbut-1-yn-1-yl)-17-hydroxy-13-methyl-1,2,6,7,8,9,10,11,12,13,14,15,16,17-tetradecahydro-3H-cyclopenta[a]phenanthren-3-one] showed an IC50 not above 100 nM. Regarding `CC(=O)N1CCN(c2ccc([C@H]3C[C@@]4(C)[C@@H](CC[C@@]4(O)C#CC(C)(C)C)[C@@H]4CCC5=CC(=O)CC[C@@H]5[C@H]43)cc2)CC1` [Compound 24], the concentration for half-maximal inhibition (IC50) was not above 100 nM.
